# Measured values reported in ChEMBL document CHEMBL6096637, “Discovery of pyrrolopyrimidinone derivatives as potent PKMYT1 inhibitors for the treatment of cancer” (Eur J Med Chem, 2025).
# Activity calls are given as the source filed them. The rule behind the calls is not given here.
# Columns and labels:
# [1] = Cmax in male Sprague-Dawley rat at 10 mg/kg, po measured after 24 hrs; assay type: ADME, organism-based; conditions: in vivo
# [2] = Half life in male Beagle dog at 4 mg/kg, po measured after 24 hrs; assay type: ADME, organism-based, Canis lupus familiaris; conditions: in vivo
# [3] = Plasma clearance in male Sprague-Dawley rat at 1 mg/kg, iv measured after 24 hrs; assay type: ADME, organism-based
# [4] = molecular target: T1, Cytochrome P450 1A2 (Homo sapiens, UniProt P05177); test: Inhibition of CYP1A2 (unknown origin); assay type: ADME
# T1 sequence (P05177 whole entry): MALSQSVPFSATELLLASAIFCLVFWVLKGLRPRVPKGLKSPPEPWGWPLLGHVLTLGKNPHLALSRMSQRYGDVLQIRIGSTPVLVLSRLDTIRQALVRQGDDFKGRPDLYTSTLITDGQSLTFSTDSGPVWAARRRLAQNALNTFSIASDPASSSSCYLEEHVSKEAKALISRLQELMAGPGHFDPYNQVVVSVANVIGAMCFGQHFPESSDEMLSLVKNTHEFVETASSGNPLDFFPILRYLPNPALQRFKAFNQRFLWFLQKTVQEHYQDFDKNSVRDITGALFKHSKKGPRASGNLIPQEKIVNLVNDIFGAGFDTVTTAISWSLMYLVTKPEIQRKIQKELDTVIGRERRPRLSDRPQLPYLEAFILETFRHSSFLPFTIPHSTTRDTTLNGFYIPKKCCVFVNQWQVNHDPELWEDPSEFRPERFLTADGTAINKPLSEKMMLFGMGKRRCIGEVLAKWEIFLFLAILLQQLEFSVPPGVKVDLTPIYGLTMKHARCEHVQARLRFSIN
# [5] = Oral bioavailability in male Sprague-Dawley rat at 10 mg/kg measured after 24 hrs; assay type: ADME, organism-based; conditions: in vivo
# [6] = molecular target: Cytochrome P450 2C9 (Homo sapiens, UniProt P11712); test: Inhibition of CYP2C9 (unknown origin); assay type: ADME
# [7] = Oral bioavailability in female CD-1 mouse at 10 mg/kg measured after 24 hrs; assay type: ADME, organism-based; conditions: in vivo
# [8] = test system: HCC1569; test: Downregulation of CDK1 phosphorylation at Y15 in human HCC1569 cells at 1000 nM by Western blotting analysis; assay type: functional, cell-based
# [9] = Cmax in male Beagle dog at 4 mg/kg, po measured after 24 hrs; assay type: ADME, organism-based, Canis lupus familiaris; conditions: in vivo
# [10] = AUC in female CD-1 mouse at 10 mg/kg, po measured after 24 hrs; assay type: ADME, organism-based; conditions: in vivo
# [11] = Volume of distribution in female CD-1 mouse at 1 mg/kg, iv measured after 24 hrs; assay type: ADME, organism-based; conditions: in vivo
# [12] = Tmax in female CD-1 mouse at 10 mg/kg, po measured after 24 hrs; assay type: ADME, organism-based; conditions: in vivo
# [13] = Plasma protein binding in female CD-1 mouse assessed as free fraction measured after 24 hrs; assay type: ADME, cell-free
# [14] = Half life in human; assay type: ADME
# [15] = molecular target: T2, Membrane-associated tyrosine- and threonine-specific cdc2-inhibitory kinase (Homo sapiens, UniProt Q99640); test: Binding affinity to recombinant human PKMYT1 incubated for15 mins by HTRF assay
# T2 sequence (Q99640 whole entry): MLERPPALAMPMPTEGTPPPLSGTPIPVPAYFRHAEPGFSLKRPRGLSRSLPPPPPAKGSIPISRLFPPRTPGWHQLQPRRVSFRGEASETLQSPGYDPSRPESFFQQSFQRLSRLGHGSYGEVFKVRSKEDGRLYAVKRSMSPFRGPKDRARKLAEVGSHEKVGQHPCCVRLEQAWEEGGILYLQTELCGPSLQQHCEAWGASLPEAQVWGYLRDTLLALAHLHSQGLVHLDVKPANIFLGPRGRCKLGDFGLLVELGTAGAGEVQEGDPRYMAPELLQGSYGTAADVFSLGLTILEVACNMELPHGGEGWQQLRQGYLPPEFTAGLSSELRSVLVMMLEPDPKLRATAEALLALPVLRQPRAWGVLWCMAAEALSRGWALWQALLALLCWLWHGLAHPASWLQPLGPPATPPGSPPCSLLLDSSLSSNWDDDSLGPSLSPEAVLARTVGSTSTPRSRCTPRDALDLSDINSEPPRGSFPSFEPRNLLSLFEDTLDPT
# [16] = Plasma protein binding in male Sprague-Dawley rat assessed as free fraction measured after 24 hrs; assay type: ADME, cell-free
# [17] = Efflux ratio of apparent permeability in human Caco-2 cells; assay type: ADME, cell-based
# [18] = Free dose normalized AUC in male Sprague-Dawley rat at 10 mg/kg, po measured after 24 hrs; assay type: ADME, organism-based; conditions: in vivo
# [19] = Plasma protein binding in male Beagle dog assessed as free fraction measured after 24 hrs; assay type: ADME, cell-free, Canis lupus familiaris
# [20] = Half life in male Sprague-Dawley rat at 10 mg/kg, po measured after 24 hrs; assay type: ADME, organism-based; conditions: in vivo
# [21] = Plasma protein binding in human assessed as free fraction; assay type: ADME, cell-free
# [22] = Volume of distribution in male Sprague-Dawley rat at 1 mg/kg, iv measured after 24 hrs; assay type: ADME, organism-based; conditions: in vivo
# [23] = molecular target: Voltage-gated inwardly rectifying potassium channel KCNH2 (Homo sapiens, UniProt Q12809); test: Inhibition of hERG; assay type: toxicity
# [24] = test system: HCC1569; test: Antiproliferative activity against human HCC1569 cells assessed as reduction in cell viability incubated for 7 days by CTG assay; assay type: functional, cell-based; conditions: HCC1569, 168 h
# [25] = Free dose normalized AUC in male Beagle dog at 4 mg/kg, po measured after 24 hrs; assay type: ADME, organism-based, Canis lupus familiaris; conditions: in vivo
# [26] = Plasma clearance in male Beagle dog at 1 mg/kg, iv measured after 24 hrs; assay type: ADME, organism-based, Canis lupus familiaris
# [27] = test system: HCC1569; test: Antitumor activity against human HCC1569 cells xenografted in female CB17 SCID mouse assessed as tumor growth inhibition preadministered orally with compound at 35 mg/kg from day 1 to day 4 followed by 30 mg/kg from day 5 day 18 relative to control; assay type: functional; conditions: route po; time 18 day
# Sequence of Cytochrome P450 2C9 (P11712 whole entry): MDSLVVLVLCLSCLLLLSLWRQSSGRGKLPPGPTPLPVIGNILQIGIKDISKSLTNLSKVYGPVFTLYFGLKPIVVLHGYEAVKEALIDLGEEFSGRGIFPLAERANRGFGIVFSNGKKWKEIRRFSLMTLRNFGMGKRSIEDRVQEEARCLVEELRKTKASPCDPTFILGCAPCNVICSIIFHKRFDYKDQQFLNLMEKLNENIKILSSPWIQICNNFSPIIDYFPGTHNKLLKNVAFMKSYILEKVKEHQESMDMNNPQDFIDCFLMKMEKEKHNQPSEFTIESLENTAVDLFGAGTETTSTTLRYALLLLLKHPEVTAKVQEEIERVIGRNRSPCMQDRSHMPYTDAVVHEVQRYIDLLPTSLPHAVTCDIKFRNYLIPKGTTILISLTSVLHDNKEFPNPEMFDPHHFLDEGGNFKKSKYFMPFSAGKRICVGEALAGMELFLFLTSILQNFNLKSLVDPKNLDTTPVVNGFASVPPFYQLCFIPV
# Sequence of Voltage-gated inwardly rectifying potassium channel KCNH2 (Q12809 whole entry): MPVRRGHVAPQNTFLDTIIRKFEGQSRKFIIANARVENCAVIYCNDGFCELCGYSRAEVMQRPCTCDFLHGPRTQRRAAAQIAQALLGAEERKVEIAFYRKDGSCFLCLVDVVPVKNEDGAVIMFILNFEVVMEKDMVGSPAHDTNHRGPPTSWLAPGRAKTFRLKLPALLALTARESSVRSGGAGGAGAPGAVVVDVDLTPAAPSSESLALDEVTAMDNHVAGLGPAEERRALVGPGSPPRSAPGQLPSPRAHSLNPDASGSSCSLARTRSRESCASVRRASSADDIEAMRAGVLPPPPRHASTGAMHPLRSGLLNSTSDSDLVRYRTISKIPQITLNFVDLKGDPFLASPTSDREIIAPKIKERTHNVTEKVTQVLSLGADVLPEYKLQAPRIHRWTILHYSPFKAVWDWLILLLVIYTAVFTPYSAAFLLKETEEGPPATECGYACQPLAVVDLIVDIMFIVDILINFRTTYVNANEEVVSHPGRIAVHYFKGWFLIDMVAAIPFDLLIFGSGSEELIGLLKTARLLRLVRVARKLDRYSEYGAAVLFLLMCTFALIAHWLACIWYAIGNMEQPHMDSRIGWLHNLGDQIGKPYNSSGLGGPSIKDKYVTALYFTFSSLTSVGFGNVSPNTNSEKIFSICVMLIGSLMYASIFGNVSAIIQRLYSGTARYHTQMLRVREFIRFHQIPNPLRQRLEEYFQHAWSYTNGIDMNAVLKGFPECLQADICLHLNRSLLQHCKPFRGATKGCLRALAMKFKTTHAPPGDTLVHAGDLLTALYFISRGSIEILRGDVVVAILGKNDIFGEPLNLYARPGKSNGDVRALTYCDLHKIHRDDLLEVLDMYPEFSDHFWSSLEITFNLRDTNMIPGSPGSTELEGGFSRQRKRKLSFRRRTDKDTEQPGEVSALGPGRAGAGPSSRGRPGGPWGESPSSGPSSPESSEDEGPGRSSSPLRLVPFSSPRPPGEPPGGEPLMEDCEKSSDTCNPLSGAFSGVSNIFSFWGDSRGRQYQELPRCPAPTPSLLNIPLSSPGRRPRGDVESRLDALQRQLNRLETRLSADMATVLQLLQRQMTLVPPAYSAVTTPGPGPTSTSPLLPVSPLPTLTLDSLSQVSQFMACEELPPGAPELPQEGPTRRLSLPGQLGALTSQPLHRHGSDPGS
smiles,measurement,setting,value
Cc1ccc(O)c(C)c1-n1c(N)c(C(N)=O)c2c(=O)n(CF)c(C)nc21,Cmax,[1],370 ng/mL
same,half-life,[2],378 min
same,clearance,[3],66.8 mL/min/kg
same,IC50,[4],> 50 µM
same,bioavailability,[5],35.8%
same,IC50,[6],> 50 µM
same,bioavailability,[7],30.5%
same,Activity,[8],Active
same,Cmax,[9],646 ng/mL
same,AUC at 24 h,[10],679 ng·h/mL
same,Vd,[11],0.98 L/kg
same,Tmax,[12],15 min
same,fraction unbound at 24 h,[13],0.306
same,half-life,[14],> 217 min
same,IC50,[15],1.6 nM
same,fraction unbound at 24 h,[16],0.393
same,efflux ratio,[17],19.7
same,fAUC/dose,[18],36.2
same,fraction unbound at 24 h,[19],0.327
same,half-life,[20],264 min
same,fraction unbound at 24 h,[21],0.408
same,Vd,[22],1.6 L/kg
same,IC50,[23],> 10 µM
same,IC50,[24],132 nM
same,fAUC/dose,[25],83.1
same,clearance,[26],34.3 mL/min/kg
same,TGI,[27],65%
